Measurements as given in the NIST ThermoML archive (doi:10.1016/j.jct.2016.09.013).

Conditions: Liquid; for viscosity: Concentric cylinders viscometry

CCn1cc[n+](C)c1.COP(=O)([O-])OC [1-ethyl-3-methylimidazolium dimethylphosphate]
101.33 kPa
Conditions | viscosity [mPa·s]
303.15 K | 186
313.15 K | 107.5
323.15 K | 67.1
333.15 K | 44.64
343.15 K | 31.27

Conditions | mass density [kg/m3]
303.15 K, 101.33 kPa, Vibrating tube method | 1214.4
312 K, 10000 kPa, Bellows volumetry | 1212.6
312 K, 20000 kPa, Bellows volumetry | 1216.9
312 K, 30000 kPa, Bellows volumetry | 1221
312 K, 40000 kPa, Bellows volumetry | 1224.9
312 K, 50000 kPa, Bellows volumetry | 1228.8
312 K, 60000 kPa, Bellows volumetry | 1232.5
313.15 K, 101.33 kPa, Vibrating tube method | 1207.6
323.15 K, 101.33 kPa, Vibrating tube method | 1200.9
331.7 K, 10000 kPa, Bellows volumetry | 1199.7
331.7 K, 20000 kPa, Bellows volumetry | 1204.1
331.7 K, 30000 kPa, Bellows volumetry | 1208.5
331.7 K, 40000 kPa, Bellows volumetry | 1212.6
331.7 K, 50000 kPa, Bellows volumetry | 1216.6
331.7 K, 60000 kPa, Bellows volumetry | 1220.4
331.7 K, 70000 kPa, Bellows volumetry | 1224.1
331.7 K, 80000 kPa, Bellows volumetry | 1227.8
331.7 K, 90000 kPa, Bellows volumetry | 1231.3
331.7 K, 100000 kPa, Bellows volumetry | 1234.7
331.7 K, 110000 kPa, Bellows volumetry | 1238.1
331.7 K, 120000 kPa, Bellows volumetry | 1241.3
331.7 K, 130000 kPa, Bellows volumetry | 1244.5
331.7 K, 140000 kPa, Bellows volumetry | 1247.6
331.7 K, 150000 kPa, Bellows volumetry | 1250.8
331.7 K, 160000 kPa, Bellows volumetry | 1253.7
331.7 K, 170000 kPa, Bellows volumetry | 1256.7
331.7 K, 180000 kPa, Bellows volumetry | 1259.5
331.7 K, 190000 kPa, Bellows volumetry | 1262.3
331.7 K, 200000 kPa, Bellows volumetry | 1265.2
333.15 K, 101.33 kPa, Vibrating tube method | 1194.3
343.15 K, 101.33 kPa, Vibrating tube method | 1187.6
351.7 K, 10000 kPa, Bellows volumetry | 1186.8
351.7 K, 20000 kPa, Bellows volumetry | 1191.5
351.7 K, 30000 kPa, Bellows volumetry | 1196
351.7 K, 40000 kPa, Bellows volumetry | 1200.3
351.7 K, 50000 kPa, Bellows volumetry | 1204.5
351.7 K, 60000 kPa, Bellows volumetry | 1208.5
351.7 K, 70000 kPa, Bellows volumetry | 1212.4
351.7 K, 80000 kPa, Bellows volumetry | 1216.2
351.7 K, 90000 kPa, Bellows volumetry | 1219.8
351.7 K, 100000 kPa, Bellows volumetry | 1223.3
351.7 K, 110000 kPa, Bellows volumetry | 1226.9
351.7 K, 120000 kPa, Bellows volumetry | 1230.4
351.7 K, 130000 kPa, Bellows volumetry | 1233.6
351.7 K, 140000 kPa, Bellows volumetry | 1236.9
351.7 K, 150000 kPa, Bellows volumetry | 1240
